Values quoted from earlier work as cited in patent US3940382A, “1,2'-Di-N-substituted kanamycin B compounds” (Zaidan Hojin Biseibutsu Kagaku Kenkyu Kai, priority 1973, dated 1976).

Tested on: drug-resistant bacteria
Details: cited from earlier work

Row | Structure (SMILES) | antibacterial activity against the drug-resistant bacteria
1 | NC[C@@H]1CC[C@@H](N)[C@@H](O[C@H]2[C@H](O[C@@H]3O[C@H](CO)[C@@H](O)[C@H]3O)[C@@H](O)[C@H](N)C[C@@H]2N)O1 [3',4'-dideoxyribostamycin] | improved antibacterial activity
2 | CNC[C@H]1O[C@H](O[C@H]2[C@H](O)[C@@H](O[C@H]3O[C@H](CO)[C@@H](O)[C@H](N)[C@H]3O)[C@H](N)C[C@@H]2N)[C@H](N)C[C@@H]1O [3'-deoxy-6'-N-methylkanamycin B] | improved antibacterial activity
3 | NC[C@H]1O[C@H](O[C@H]2[C@H](O)[C@@H](O[C@H]3O[C@H](CO)[C@@H](O)[C@H](N)[C@H]3O)[C@H](N)C[C@@H]2N)[C@H](N)C[C@@H]1O [3'-deoxykanamycin B] | improved antibacterial activity
4 | NC[C@H]1O[C@H](O[C@H]2[C@H](O)[C@@H](O)[C@H](N)C[C@@H]2N)[C@H](N)C[C@@H]1O [3'-deoxyneamine] | improved antibacterial activity
5 | NC[C@H]1O[C@H](O[C@H]2[C@H](O[C@@H]3O[C@H](CO)[C@@H](O)[C@H]3O)[C@@H](O)[C@H](N)C[C@@H]2N)[C@H](N)C[C@@H]1O [3'-deoxyribostamycin] | improved antibacterial activity
